Reference: US9738605B2, “Hybrid compounds of curcumin and melatonin as neuroprotectants for neurodegenerative disorders” (VIRGINIA COMMONWEALTH UNIVERSITY, priority 2013, dated 2017)
Read-outs that look alike come from different tables or passages of the source. Values belong to the compound of their own block, whether it stands above or below them.

How the values were obtained:
MC65 cells [1] = experiment: Neuroprotection assay in MC65 cells (−TC, MTT); conditions: for EC50: read-out: EC50 for neuroprotection of MC65 cells
Procedure: MC65 cells were washed twice with PBS, resuspended in Opti-MEM, and seeded in 96-well plates (4×10^4 cells/well). Indicated compounds were then added, and cells were incubated at 37° C. under +TC or −TC conditions for 72 h. Then, 10 μL of MTT (5 mg/mL in PBS) were added and the cells were incubated for another 4 h. Cell medium was then removed, and the remaining formazan crystals produced by the cellular reduction of MTT were dissolved in DMSO. Absorbance at 570 nm was immediately recorded using a FlexStation® 3 plate reader (Molecular Devices, CA).

Aβ42 = target: T1, Aβ42 (Homo sapiens, UniProt P05067); experiment: Thioflavin T assay of Aβ42 fibril formation; format: biochemical; conditions: 10 μM compound, Aβ42 25 μm, 48 h, ThT; read-out: inhibition of the formation of Aβ42 fibrils
T1 construct: purchased American Peptide, Inc. (Sunnyvale, Calif.)
T1 sequence (P05067 672-713 limits assumed): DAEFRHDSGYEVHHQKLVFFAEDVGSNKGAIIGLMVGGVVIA
Procedure: Briefly, 1 μL of each compound solution in DMSO (0.01 μM to 100 μM) was added to corresponding wells in a 96-well plate. Each concentration was prepared in independent triplicates and a solvent control was included. To each well, 9 μL of 25 μM Aβ42 in PBS (pH 7.4) was added, and then plates were incubated in dark at room temperature for 48 h. Next, 200 μL of a 5 μM ThT in 50 mM glycine solution (pH 8.0) was added to each well.

[2] = background statement; cited from earlier work
[3] = PAMPA-BBB passive diffusion model; conditions: for Papp: PAMPA
Procedure: In the same assay, 10 commercial drugs with known CNS penetration were also tested as positive controls, and their experimental values were compared to reported values (Table 1).

[4] = system: amyloid-β oligomers (AβOs) in MC65 cells; experiment: Western blot (6E10) of AβOs production in MC65 cells; format: cell-based; conditions: MC65 cells after removal of TC, 6E10 antibody
Procedure: MC65 cells (4×10^5 cells/mL) were treated with indicated compounds for 30 h and then were lysed by sonication in a Tricine buffer solution and boiled for 5 min. Protein samples were collected from the supernatant after centrifugation of the samples at 12,800×g for 5 min, and then quantified using the Bradford method. Equal amounts of protein (20.0 μg) were separated by SDS-PAGE on a gel (Bio-Rad) and transferred onto a PVDF membrane (Bio-Rad). The blots were blocked with 5% milk in TBS-Tween 20 (0.1%) solution at room temperature for 1 h and then probed with the 6E10 antibody overnight at 4° C. The blots were washed twice in TB S-Tween 20 for 15 min, and then incubated with a 1:1000 dilution of horseradish peroxidase-conjugated secondary antibody in a 5% milk/PBS-Tween 20 solution at room temperature for 1 h. After washing twice in TBS-Tween 20 for 15 min, the proteins were visualized by a Western Blot Chemiluminescence Reagent (Thermo Fischer Scientific, Waltham, Mass.). The blots were also probed with antibodies against α-tubulin to ensure equal loading of proteins.

[5] = system: intracellular oxidative stress in MC65 cells; experiment: ROS production assay in MC65 cells (DCFH-DA); format: cell-based; conditions: −TC, 48 h, DCFH-DA 25 μM, read-out: IC50 for suppression of intracellular oxidative stress
Procedure: Cells were harvested, washed twice with cold PBS, then suspended in PBS and incubated with DCFH-DA (25 μM) in dark for 1 h. Fluorescence was analyzed by flow cytometry using a Millipore Guava® easyCyte flow cytometer.

HT22 cells = experiment: Hydrogen peroxide toxicity assay in HT22 cells; format: cell-based, mouse; conditions: 24 h
Procedure: HT22 cells were seeded in 96-well plates (4×10^3 cells/well) in growth medium and incubated for 24 h at 37° C. The medium was removed and compounds were added at the indicated concentrations in fresh growth medium, and the cells were incubated for another 1 h. H2O2 was then added at a final concentration of 500 μM, and the plates were then incubated for 24 h. Cell viability was assessed by MTT assay as previously described. Values were expressed as a percentage relative to the negative (H2O2-free) control.

MC65 cells [6] = experiment: Cytotoxicity in MC65 cells under normal growth conditions (+TC), MTT; format: cell-based; conditions: 72 h
Procedure: FIG. 7A-D. Effects on viability of TRO19622, Mito-TEMPO and 7 in MC65 cells. A. MC65 cells were treated with Mito-TEMPO or TRO-19622 at indicated concentrations under normal growth conditions (+TC) for 72 h. Cell viability was assessed by MTT assay. Data were expressed as mean percentage viability (n=3) with parallel +TC cultures set at 100% viability. Error bars represent SEM. B. MC65 cells were treated with Mito-TEMPO at indicated concentrations under −TC conditions for 72 h. Cell viability was assessed by MTT assay. Data were expressed as mean percentage viability (n=3) with parallel +TC cultures set at 100% viability. C. MC65 cells were treated with TRO-19622 at indicated concentrations under −TC conditions for 72 h. Cell viability was assessed by MTT assay. Data were expressed as mean percentage viability (n=3) with parallel +TC cultures set at 100% viability. D. MC65 cells were treated with 7 or Mito-TEMPO at indicated concentrations for 2 h before addition of rotenone for 48 h. Cell viability was assessed by MTT assay. Data were expressed as mean percentage viability (n=3) with parallel +TC cultures set at 100% viability. […]

MC65 cells [7] = experiment: Rotenone protection assay in MC65 cells; format: cell-based; conditions: 10 μM, 48 h
Procedure: The medium was removed and compounds were added at the indicated concentrations in fresh growth medium, and the cells were incubated for another 2 h. Rotenone was then added at a final concentration of 10 μM, and the plates were then incubated for 48 h. Cell viability was assessed by MTT assay.

Compound: COc1ccc2[nH]cc(CCNC(=O)CC(=O)C=Cc3ccco3)c2c1 [AM4]
neuroprotection of MC65 cells from −TC induced cell death (MC65 cells [1]; 0.3 μM, −TC, 72 h, MTT): did not show neuroprotection

Compound: COc1ccc2[nH]cc(CCNC(=O)CC(=O)C=Cc3ccoc3)c2c1 [AM5]
protection compared to −TC control (MC65 cells [1]; 0.3 μM, −TC, 72 h): ~48%

Compound: COc1ccc2[nH]cc(CCNC(=O)CC(=O)C=Cc3ccncc3)c2c1 [AM6]
protection compared to −TC control (MC65 cells [1]; 0.3 μM, −TC, 72 h): ~33%

Compound: COc1ccc2[nH]cc(CCNC(=O)CC(=O)C=Cc3ccc(N(C)C)cc3)c2c1 [AM14]
protection compared to −TC control (MC65 cells [1]; 0.3 μM, −TC, 72 h): ~0.20%

inhibition at 10 µM (Aβ42): 27.3%
Compound: COc1cc(/C=C/C(=O)CC(=O)/C=C/c2ccc(O)c(OC)c2)ccc1O [Compound 1, Curcumin]
neuroprotection of MC65 cells from −TC induced cell death (MC65 cells [1]; 0.3 μM, −TC, 72 h, MTT): no neuroprotection | neuroprotection at much higher concentrations (data not shown) (MC65 cells [1]; 3 and 10 μM, −TC): moderate neuroprotection

Compound: COc1ccc2[nH]cc(CCNC(C)=O)c2c1 [Compound 2, Melatonin]
neuroprotection of MC65 cells from −TC induced cell death (MC65 cells [1]; 0.3 μM, −TC, 72 h, MTT): no neuroprotection | half-life [2]: < 30 min

Compound: COc1ccc2[nH]cc(CCNC(=O)CC(=O)/C=C/c3ccc(O)c(OC)c3)c2c1 [Compound 3]
Permeability Pe (exp.) ([3]; PBS:EtOH (70:30), mean ± SD of 3 independent experiments): 6.5 ± 0.6 10^−6 cm s^−1 | Prediction of penetration in the CNS ([3]; from Pe (exp.) and correlation with reported values): CNS− (compounds with Pe<8.1×10^−6 cm s^−1 will have low BBB permeability by passive diffusion) | increase in cell viability (MC65 cells [1]; 0.3 μM, −TC, 72 h): ~61% | EC50 (MC65 cells [1]; −TC conditions, 72 h, MTT): 134 ± 4.5 nM

Compound: COc1cccc(C=CC(=O)CC(=O)NCCc2c[nH]c3ccc(OC)cc23)c1 [Compound 4]
neuroprotection of MC65 cells from −TC induced cell death (MC65 cells [1]; 0.3 μM, −TC, 72 h, MTT): complete loss of neuroprotection

Papp [3]: 5.9 ± 0.4 ×10⁻⁶ cm/s | IC50 [5]: ~63 nM
Compound: COc1ccc2[nH]cc(CCNC(=O)CC(=O)/C=C/c3ccc(O)cc3)c2c1 [Compound 5]
neuroprotection of MC65 cells from −TC induced cell death (MC65 cells [1]; 0.3 μM, −TC, 72 h, MTT): significant neuroprotection | EC50 (MC65 cells [1]; MC65, 72 h): 23.1 ± 5.23 nM | effect on the production of AβOs (tetramers, pentamers, heptamers) [4]: dose-dependently suppressed

Compound: OO [Compound H2O2, H2O2]
HT22 cell death (HT22 cells; 500 μM): ~58%

Compound: CC1(C)CC(NC(=O)C[P+](c2ccccc2)(c2ccccc2)c2ccccc2)CC(C)(C)N1[O] [Mito-TEMPO, reference compound]
toxic effects in MC65 cells under +TC (MC65 cells [6]; up to 10 μM): did not show toxic effects | protection from −TC induced cytotoxicity (MC65 cells [1]; indicated concentrations, maximum 10 μM, −TC, 72 h): dose-dependently protected

Papp [3]: 6 ± 0.3 ×10⁻⁶ cm/s
Compound: CN1C(C(=O)Nc2ccccn2)=C(O)c2ccccc2S1(=O)=O [Piroxicam, reference compound]

Papp [3]: 25.1 ± 1.4 ×10⁻⁶ cm/s
Compound: CN(C)CCCN1c2ccccc2Sc2ccccc21 [Promazine, reference compound]

Compound: CC(C)CCC[C@@H](C)[C@H]1CC[C@H]2[C@@H]3CCC4=CC(=NO)CC[C@]4(C)[C@H]3CC[C@]12C [TRO-19622, reference compound]
cytotoxicity in MC65 cells under +TC (MC65 cells [6]; up to 25 μM): did not show cytotoxicity | protection from −TC induced cytotoxicity (MC65 cells [1]; up to 25 μM, −TC, 72 h): did not show significant protection

Compound: Cc1c(C)c2c(c(C)c1O)CCC(C)(C(=O)O)O2 (centres unmarked) [Trolox, 6-hydroxy-2,5,7,8-tetramethyl chroman-2-carboxylic acid]
protection from H2O2-induced cytotoxicity (HT22 cells; 300 μM, H2O2 500 μM): full rescue

Compound: COc1ccc2[nH]cc(CCNC(=O)CC(=O)C=Cc3ccc4c(c3)OCO4)c2c1 [ZSJ-II-126]
neuroprotection of MC65 cells from −TC induced cell death (MC65 cells [1]; 0.3 μM, −TC, 72 h, MTT): diminished protection

Compound: C=C(C)[C@H]1Cc2c(ccc3c2O[C@@H]2COc4cc(OC)c(OC)cc4[C@@H]2C3=O)O1 [rotenone, reference compound]
cell death of MC65 cells (MC65 cells [7]): 75.6%
